Results taken from the NIST ThermoML archive (doi:10.1021/je400102p).

Assay: relative permittivity at various frequencies (dimensionless)
Details: Liquid, Frequency=0.001 MHz, Concentric Cylinder Capacitor

Cc1ccccc1 [toluene]
Details	relative permittivity
303.15 K, 312 kPa	2.37527
303.15 K, 1015 kPa	2.37634
303.15 K, 5058 kPa	2.38253
303.15 K, 10116 kPa	2.38999
303.15 K, 20221 kPa	2.40447
303.15 K, 30317 kPa	2.41824
303.15 K, 40408 kPa	2.43058
303.15 K, 50497 kPa	2.44313
303.15 K, 60603 kPa	2.45469
333.15 K, 402 kPa	2.31204
333.15 K, 995 kPa	2.3134
333.15 K, 5053 kPa	2.32081
333.15 K, 10114 kPa	2.32958
333.15 K, 20221 kPa	2.34637
333.15 K, 30317 kPa	2.36168
333.15 K, 40419 kPa	2.3756
333.15 K, 50510 kPa	2.38883
333.15 K, 60615 kPa	2.40129
363.15 K, 314 kPa	2.24824
363.15 K, 1010 kPa	2.2498
363.15 K, 5053 kPa	2.25867
363.15 K, 10108 kPa	2.26912
363.15 K, 10109 kPa	2.26918
363.15 K, 10111 kPa	2.26913
363.15 K, 20229 kPa	2.28839
363.15 K, 20231 kPa	2.28835
363.15 K, 20232 kPa	2.28831
363.15 K, 30317 kPa	2.30557
363.15 K, 30325 kPa	2.30571
363.15 K, 40408 kPa	2.32135
363.15 K, 50502 kPa	2.33608
363.15 K, 50510 kPa	2.33603
363.15 K, 60614 kPa	2.3499
363.15 K, 60624 kPa	2.34978
393.15 K, 1622 kPa	2.18753
393.15 K, 5063 kPa	2.19687
393.15 K, 5070 kPa	2.19705
393.15 K, 10114 kPa	2.20937
393.15 K, 10123 kPa	2.20955
393.15 K, 20223 kPa	2.23281
393.15 K, 20234 kPa	2.23259
393.15 K, 30331 kPa	2.2527
393.15 K, 40414 kPa	2.27067
